Test [1] deals with T1, Alpha-galactosidase A (Rattus norvegicus, UniProt D3ZJF9).
T1 sequence (D3ZJF9 whole entry): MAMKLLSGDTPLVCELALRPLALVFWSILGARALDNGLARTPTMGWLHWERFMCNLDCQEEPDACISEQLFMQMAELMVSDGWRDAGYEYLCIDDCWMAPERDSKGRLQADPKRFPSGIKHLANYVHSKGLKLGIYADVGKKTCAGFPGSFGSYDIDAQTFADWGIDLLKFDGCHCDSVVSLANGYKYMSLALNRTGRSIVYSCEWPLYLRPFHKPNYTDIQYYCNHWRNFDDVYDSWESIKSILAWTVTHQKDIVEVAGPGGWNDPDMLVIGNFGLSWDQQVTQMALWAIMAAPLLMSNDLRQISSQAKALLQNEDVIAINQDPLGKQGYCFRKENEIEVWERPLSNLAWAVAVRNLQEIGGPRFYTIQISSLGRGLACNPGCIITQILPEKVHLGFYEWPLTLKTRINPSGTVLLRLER
Description: Inhibitory activity against alpha-galactosidase from rat epididymis.

The target of test [2] is T2, Beta-galactosidase (Bos taurus, UniProt Q58D55).
T2 sequence (Q58D55 whole entry): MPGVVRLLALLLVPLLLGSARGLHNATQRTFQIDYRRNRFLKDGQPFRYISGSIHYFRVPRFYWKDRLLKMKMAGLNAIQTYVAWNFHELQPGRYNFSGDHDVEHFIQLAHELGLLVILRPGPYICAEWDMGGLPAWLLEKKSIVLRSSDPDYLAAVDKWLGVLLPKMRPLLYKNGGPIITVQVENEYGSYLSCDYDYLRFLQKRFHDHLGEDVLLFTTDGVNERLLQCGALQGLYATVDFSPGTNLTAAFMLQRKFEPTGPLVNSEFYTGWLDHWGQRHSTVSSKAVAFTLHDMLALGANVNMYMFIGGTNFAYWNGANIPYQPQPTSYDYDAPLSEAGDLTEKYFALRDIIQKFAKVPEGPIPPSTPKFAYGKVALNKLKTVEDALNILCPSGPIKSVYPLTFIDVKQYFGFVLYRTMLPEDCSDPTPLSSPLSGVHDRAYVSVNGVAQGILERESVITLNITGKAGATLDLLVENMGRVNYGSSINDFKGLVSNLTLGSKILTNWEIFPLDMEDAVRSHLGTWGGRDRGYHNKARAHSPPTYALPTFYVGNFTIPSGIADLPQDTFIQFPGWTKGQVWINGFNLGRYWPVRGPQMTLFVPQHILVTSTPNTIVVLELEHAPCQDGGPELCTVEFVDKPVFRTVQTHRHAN
Description: Inhibitory activity against beta-galactosidase from bovine liver.

Molecules are shown by their SMILES.

The term IC50 denotes the concentration that gives 50% inhibition. Higher therefore signals lower potency. `OCC1NC(CO)[C@H](O)[C@@H](O)[C@@H]1O` (stereo partly drawn) came in with an IC50 in test [1] of 4.5 µM. Consider `OC[C@H]1N[C@H](CO)[C@@H](O)[C@@H](O)C1O` (single isomer, unassigned), for which the IC50 amounted to 67 µM in test [1] and 160 µM in test [2].

Source of the values: ChEMBL document CHEMBL1131876, “Revised structure of a homonojirimycin isomer from Aglaonema treubii: first example of a naturally occurring alpha-homoallonojirimycin” (Bioorg Med Chem Lett, 1999).
